Assay results as given in the NIST ThermoML archive (doi:10.1016/j.jct.2014.01.007).
± gives the expanded uncertainty stated by the source.

Key:
[1] = for mass density: 101.33 kPa; for Triple point temperature: DTA
[2] = molar enthalpy of vaporization or sublimation; conditions: 298.15 K; Liquid; Static calorimetry
[3] = Molar enthalpy of transition or fusion; conditions: DSC

| mass density ([1]; 288.15 K, Liquid, Vibrating tube method) [kg/m3] | mass density ([1]; 293.15 K, Liquid, Vibrating tube method) [kg/m3] | mass density ([1]; 298.14 K, Liquid, Vibrating tube method) [kg/m3] | mass density ([1]; 303.15 K, Liquid, Vibrating tube method) [kg/m3] | mass density ([1]; 308.15 K, Liquid, Vibrating tube method) [kg/m3] | molar enthalpy [2] [kJ/mol] | mass density ([1]; 167 K, Crystal 2, X-ray diffraction) [kg/m3] | mass density ([1]; 251 K, Crystal 1, X-ray diffraction) [kg/m3] | Triple point temperature ([1]; Crystal 1) [K] | Triple point temperature ([1]; Crystal 2) [K] | Molar enthalpy of transition or fusion ([3]; Crystal 1) [kJ/mol] | Molar enthalpy of transition or fusion ([3]; Crystal 2) [kJ/mol] | Structure (SMILES) |
| --- | --- | --- | --- | --- | --- | --- | --- | --- | --- | --- | --- | --- |
| 921.517 ± 0.12 | 917.012 ± 0.12 | 912.5 ± 0.12 | 907.982 ± 0.12 | 903.458 ± 0.12 | 49.9 ± 1.5 | – | – | – | – | – | – | CN(C)C(=N)N(C)C [1,1,3,3-tetramethylguanidine] |
| – | – | – | – | – | – | 1295 ± 7 | 1284 ± 7 | 365.9 ± 0.5 | 221.4 ± 1.7 | 19.8 ± 0.51 | 0.665 ± 0.14 | CN(C)C(N)=[N+](C)C.O=[N+]([O-])[O-] [tetramethylguanidinium nitrate] |
